This note sets out measurements from patent publication US20240383908A1, “SYNTHESIS AND APPLICATION OF PHOSPHATASE DEGRADER” (HINOVA PHARMACEUTICALS INC., priority 2021, published 2024).

The target in this experiment is T1, SHP2 protein (Homo sapiens, UniProt Q06124).
T1 sequence (Q06124 1-593): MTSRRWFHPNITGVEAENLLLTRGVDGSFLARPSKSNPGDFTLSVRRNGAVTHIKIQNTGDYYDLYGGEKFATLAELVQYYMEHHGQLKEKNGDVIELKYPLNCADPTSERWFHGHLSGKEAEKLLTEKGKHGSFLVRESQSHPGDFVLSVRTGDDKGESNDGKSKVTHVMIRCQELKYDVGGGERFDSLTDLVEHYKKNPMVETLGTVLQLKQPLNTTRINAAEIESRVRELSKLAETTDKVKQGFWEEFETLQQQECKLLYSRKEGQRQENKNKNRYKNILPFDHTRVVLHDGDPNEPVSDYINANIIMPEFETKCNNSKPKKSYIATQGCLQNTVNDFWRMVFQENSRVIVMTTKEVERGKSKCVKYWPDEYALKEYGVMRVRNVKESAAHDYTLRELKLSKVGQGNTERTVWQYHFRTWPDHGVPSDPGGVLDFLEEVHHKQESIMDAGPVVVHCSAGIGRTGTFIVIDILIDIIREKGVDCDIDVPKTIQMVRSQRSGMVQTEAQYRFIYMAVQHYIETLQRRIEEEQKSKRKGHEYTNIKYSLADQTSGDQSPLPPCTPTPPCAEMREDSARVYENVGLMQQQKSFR
The experiment in a line: Degradation activity on SHP2 protein in MV-411 cells (Western blot, DC50). More on the design: endogenous in cells. To be noted: MV411 cells, 24 hours, read-out: Degradation activity for differenct cell lines MV411 (DC50). In kind it is cell-based. Here is the method:
• MV-411 cell line (COBIER, CBP-60522) • FBS (GEMINI, Cat. No. 900-108) • 0.01M PBS (Biosharp, Cat. No. 162262) • IMDM (Hyclone, Cat. No. SH30228.01) • Penicillin-Streptomycin (Gibco, Cat. No. 15140122) • DMSO (Sigma, Cat. No. D5879) • Centrifuge Tube, 15 ml (Excell Bio, Cat. No. CS015-0001) • Cell Culture Dish, (WHB, Cat. No. CS016-0128) • 12-well cell culture cluster (Corning, Cat. No. 3513) • RIPA lysate buffer (Thermo, Cat. No. 89900) • Protein Loding Buffer (Beyotime, Cat. No. P0015L) • BCA Protein Assay Kit (EpiZyme, Cat. No. ZJ102) • SDS-PAGE Fast Preparation Kit (EpiZyme, Cat. No. PG112) • Anti-GAPDH (14C10) Rabbit mAb (CST, Cat. No. 2118L) • Anti-SHP2 rabbit mAb (CST, Cat. No. 37525) • Peroxidase Affinipure (HRP) Goat Anti-Rabbit IgG (Zen Bioscience, Cat. No. 511203) • TBST (Biosharp, Cat. No. BL601A) • ECL chemiluminescence kit (4A Biotech, Cat. No. 4AW011-200)
• (1) Cell culture medium: IMIDM medium+10% FBS+1% Pen Strep; • (2) PBS buffer: PBS powder was dissolved in 2 L of ultrapure water and sterilized; • (3) Cell lysate: RIPA lysate buffer is added with protease inhibitors at a ratio of 1:1000 before use.
(1) MV-411 cells were cultured in the cell culture medium, and then well-growing cells were selected and inoculated in a 12-well plate, with 1 mL/well and 1×10^6 cells/well. The plate was incubated overnight in a 5% CO2 cell incubator at 37° C.
(2) 10 mM storage solution of each drug was prepared using dimethylsulfoxide (DMSO). The stock solution was diluted gradually with DMSO before use, and then 1 μL of the compound solution was added to the cell culture well (to ensure that the DMSO concentration in the culture system was […]), so that the final drug concentration is 100 nM, 10 nM, 3 nM, 1 nM, 0.3 nM, and 0.1 nM. Two wells were set for each concentration. The plate was gently shaken and mixed. Additionally, negative control wells (containing an equal amount of DMSO) and positive control wells were included.
(3) After 24 hours of cultivation, the cells were lysed using RIPA cell lysate, and the proteins were extracted. The protein concentration was measured using a BCA assay kit. 5× concentrated protein buffer was loaded, heated at 100° C. for 5 min, and then the sample was stored at −20° C.
(4) For each well, 30 μg of protein was loaded to polyacrylamide gel for electrophoresis.
(5) The protein was transferred from polyacrylamide gel to PVDF membrane, and sealed at room temperature with 5% skimmed milk for 1 h, which was then incubated with the primary antibodies (Anti-SHP2 rabbit mAb and Anti-GAPDH rabbit mAb) at 4° C. overnight. The membrane was washed three times with TBST solution, 10 minutes for each time. After that, the membrane was incubated with the secondary antibodies (horseradish peroxidase labeled goat anti-rabbit IgG) at room temperature for 2 h, and then washed three times with TBST solution, 10 minutes for each time, followed by exposure.
(6) The images were analyzed with Image J grayscale, and the degradation ratio of protein bands in the test group was calculated, based on the negative control group (DMSO) (100%).
(7) Using the Dose-response-inhibition equation in the data processing software GraphPad Prism 8, the DC50 value was obtained (which represents the drug concentration corresponding to 50% degradation of the target protein).
Finally, ECL detection solution was added for color development, and photos were taken with an automatic chemiluminescence instrument, so as to collect images and analyze them.
Background: In western blotting, separated proteins are transferred to a membrane and probed.

Each structure is given as a SMILES string.

Turning to `CC1(N)CCN(c2cnc(Sc3cccc(NC(=O)CCC(=O)N4CCN(CCCCCCCCC(=O)NCc5ccc6c(c5)CN(C5CCC(=O)NC5=O)C6=O)CC4)c3)cn2)CC1` (stereo not drawn) [Compound 27], the DC50 – broadly, the concentration at which degradation of the target reaches its halfway point – is below 100 nM.

`CN(Cc1ccc2c(c1)CN(C1CCC(=O)NC1=O)C2=O)C(=O)c1ccc(N2CCC3(CC(OCCCCCC(=O)Nc4cccc(Sc5cnc(N6CCC(C)(N)CC6)cn5)c4)C3)C2)nn1` (stereo not drawn) [Compound 167]: the 50% degradation concentration (DC50) was below 100 nM.

On to `Cc1ncsc1-c1ccc([C@H](C)NC(=O)[C@@H]2C[C@@H](O)CN2C(=O)[C@@H](NC(=O)CCCCCCCN2CC3(C2)CN(C(=O)[C@@H]2C[C@H]2C(=O)Nc2cccc(Sc4cnc(N5CCC(C)(N)CC5)cn4)c2)C3)C(C)(C)C)cc1` [Compound 39], for which the 50% degradation concentration (DC50) was below 100 nM.

Turning to `C[C@@H]1OCC2(CCN(c3cnc(Sc4cccc(NC(=O)COCCCCCN5CC6(CCN(c7ccc(C(=O)NCc8ccc9c(c8)CN(C8CCC(=O)NC8=O)C9=O)nn7)C6)C5)c4)cn3)CC2)[C@@H]1N` (stereo partly drawn) [Compound 121], the half-maximal degradation concentration (DC50) was below 100 nM.

For `Cc1ncsc1-c1ccc([C@H](C)NC(=O)[C@@H]2C[C@@H](O)CN2C(=O)[C@@H](NC(=O)c2ccc(N3CCC4(CN(CCCCCOCC(=O)Nc5cccc(Sc6cnc(N7CCC8(CC7)CO[C@@H](C)[C@H]8N)cn6)c5)C4)C3)nn2)C(C)(C)C)cc1` [Compound 120], the DC50 was below 100 nM.

For `CC1(N)CCN(c2cnc(Sc3cccc(NC(=O)[C@@H]4C[C@H]4C(=O)N4CC5(CN(CCCCCCCC(=O)NCc6ccc7c(c6)CN(C6CCC(=O)NC6=O)C7=O)C5)C4)c3)cn2)CC1` (stereo partly drawn) [Compound 38], the 50% degradation concentration (DC50) is below 100 nM.

On to `NC1(CF)CCN(c2cnc(Sc3ccc(NC(=O)CCCCN4CC5(CCN(c6ncc(C(=O)NCc7ccc8c(c7)CN(C7CCC(=O)NC7=O)C8=O)cn6)C5)C4)cc3)cn2)CC1` (stereo not drawn) [Compound 129], for which the DC50 is above 1000 nM.

In the case of `NC1(CO)CCN(c2cnc(Sc3cccc(NC(=O)CCCCCC=C4CC5(CCN(c6ccc(C(=O)NCc7ccc8c(c7)CN(C7CCC(=O)NC7=O)C8=O)nn6)CC5)C4)c3)cn2)CC1` (stereo not drawn) [Compound 210], the DC50 is below 100 nM.

With `CC1(N)CCN(c2cnc(Sc3cccc(NC(=O)CCCCCN4CC5(CCN(c6ccc(C(=O)NCc7ccc8c(c7)CN(C7CCC(=O)NC7=O)C8=O)nn6)C5)C4)c3)cn2)CC1` (stereo not drawn) [Compound 164], the DC50 was below 100 nM.

In the case of `CC1(N)CCN(c2cnc(Sc3cccc(NC(=O)COCCCCCN4CC5(CCN(c6ccc(C(=O)NCc7ccc8c(c7)CN(C7CCC(=O)NC7=O)C8=O)nn6)C5)C4)c3)cn2)CC1` (stereo not drawn) [Compound 124], the 50% degradation concentration (DC50) is below 100 nM.

Regarding `NC1(CO)CCN(c2cnc(Sc3cccc(NC(=O)CCCCCCN4CC5(CCN(c6ccc(C(=O)NCc7ccc8c(c7)CN(C7CCC(=O)NC7=O)C8=O)nn6)C5)C4)c3)cn2)C1` (stereo not drawn) [Compound 198], the DC50 was above 1000 nM.

In the case of `Cc1ncsc1-c1ccc([C@H](C)NC(=O)[C@@H]2C[C@@H](O)CN2C(=O)[C@@H](NC(=O)/C=C/C(=O)N2CCC3(CN(CCCCCCC(=O)Nc4cccc(Sc5cnc(N6CCC(C)(N)CC6)cn5)c4)C3)C2)C(C)(C)C)cc1` [Compound 116], the half-maximal degradation concentration (DC50) was above 1000 nM.

Take `CC1(N)CCN(c2cnc(Sc3cccc(NC(=O)CCCCCCCOC4CCN(c5ncc(C(=O)Nc6cccc7c6CN(C6CCC(=O)NC6=O)C7=O)cn5)CC4)c3)cn2)CC1` (stereo not drawn) [Compound 92]: the DC50 is above 1000 nM.

As to `NC1CCN(c2cnc(Sc3cccc(NC(=O)CCCCCCCCN4C5CCC4CN(c4ccc(C(=O)NCc6ccc7c(c6)CN(C6CCC(=O)NC6=O)C7=O)nn4)C5)c3)cn2)CC1F` (stereo not drawn) [Compound 143], the DC50 was below 100 nM.

On to `Cc1ncsc1-c1ccc([C@H](C)NC(=O)[C@@H]2C[C@@H](O)CN2C(=O)[C@@H](NC(=O)c2ccc(N3CCN(CCCCCCCCC(=O)Nc4cccc(Sc5cnc(N6CCC(C)(N)CC6)cn5)c4)CC3)nn2)C(C)(C)C)cc1` [Compound 62], for which the DC50 lay within 100 to 1000 nM.

Regarding `CN[C@H](C)C(=O)N[C@@H](C(=O)N1C[C@@H](NC(=O)c2ccc(N3CC(C)N(CCCCCCCCC(=O)Nc4cccc(Sc5cnc(N6CCC(C)(N)CC6)cn5)c4)C(C)C3)nn2)C[C@@H]1C(=O)Nc1c(F)cccc1F)C(C)(C)C` (stereo partly drawn) [Compound 139], the 50% degradation concentration (DC50) was above 1000 nM.

`CC1(CN)CCN(c2cnc(Sc3ccc(NC(=O)COCCOCC(=O)Nc4ccc5c(c4)C(=O)N(C4CCC(=O)NC4=O)C5)cc3Cl)cn2)CC1` (stereo not drawn) [Compound 8]: the half-maximal degradation concentration (DC50) is above 1000 nM.

As to `Cc1ncsc1-c1ccc([C@H](C)NC(=O)[C@@H]2C[C@@H](O)CN2C(=O)[C@@H](NC(=O)c2cnc(N3CCN(CCCCCCCCC(=O)Nc4cccc(Sc5cnc(N6CCC(C)(N)CC6)cn5)c4)CC3)nc2)C(C)(C)C)cc1` [Compound 47], the DC50 was below 100 nM.

On to `CC1(N)CCN(c2cnc(Sc3cccc(NC(=O)CCC(=O)NCCOCCOCCOCC(=O)NCc4ccc5c(c4)CN(C4CCC(=O)NC4=O)C5=O)c3)cn2)CC1` (stereo not drawn) [Compound 21], for which the DC50 is above 1000 nM.

As for `CC(C)(C)OC(=O)NCC1(O)C2CCC1CN(c1cnc(Sc3cccc(NC(=O)CCCCCCN4CC5(CCN(c6ccc(C(=O)NCc7ccc8c(c7)CN(C7CCC(=O)NC7=O)C8=O)nn6)C5)C4)c3)cn1)C2` (stereo not drawn) [Compound 203], the half-maximal degradation concentration (DC50) is above 1000 nM.

Take `NCC1(O)C2CCC1CN(c1cnc(Sc3cccc(NC(=O)CCCCCCN4CC5(CCN(c6ccc(C(=O)NCc7ccc8c(c7)CN(C7CCC(=O)NC7=O)C8=O)nn6)C5)C4)c3)cn1)C2` (stereo not drawn) [Compound 204]: the DC50 was above 1000 nM.

In the case of `CN(Cc1ccc2c(c1)CN(C1CCC(=O)NC1=O)C2=O)C(=O)c1ccc(N2CCC(OCCCCCCCC(=O)Nc3cccc(Sc4cnc(N5CCC(C)(N)CC5)cn4)c3)C(F)(F)C2)nn1` (stereo not drawn) [Compound 173], the DC50 was below 100 nM.

With `NC1(CO)CCN(c2cnc(Sc3cccc(NC(=O)CCCCCCCCN4CC=C(c5ccc(C(=O)NCc6ccc7c(c6)CN(C6CCC(=O)NC6=O)C7=O)nn5)CC4)c3)cn2)CC1` (stereo not drawn) [Compound 202], the half-maximal degradation concentration (DC50) is below 100 nM.

With `CC1(N)CCN(c2cnc(Sc3cccc(NC(=O)CCCCCCC(=O)N4CC5(CN(C(=O)/C=C/C(=O)NCc6ccc7c(c6)CN(C6CCC(=O)NC6=O)C7=O)C5)C4)c3)cn2)CC1` (stereo not drawn) [Compound 125], the 50% degradation concentration (DC50) is above 1000 nM.

Take `NC1(CF)CCN(c2cnc(Sc3ccc(NC(=O)COCCCCCN4CC5(CCN(c6ccc(C(=O)NCc7ccc8c(c7)CN(C7CCC(=O)NC7=O)C8=O)nn6)C5)C4)cc3)cn2)CC1` (stereo not drawn) [Compound 123]: the DC50 lay in the range of 100 to 1000 nM.

Turning to `CC1(CN)CCN(c2cnc(Sc3cccc(NC(=O)CCC(=O)N4CCN(CCCCCCCCC(=O)Nc5cccc6c5CN(C5CCC(=O)NC5=O)C6=O)CC4)c3Cl)cn2)CC1` (stereo not drawn) [Compound 13], the DC50 is below 100 nM.

Consider `CC(C)(C)OC(=O)NC1CN(c2cnc(Sc3cccc(NC(=O)CCCCCCN4CC5(CCN(c6ccc(C(=O)NCc7ccc8c(c7)CN(C7CCC(=O)NC7=O)C8=O)nn6)C5)C4)c3)cn2)CC1O` (stereo not drawn) [Compound 205], for which the half-maximal degradation concentration (DC50) was above 1000 nM.
